From patent US11969428B2, “Methods and pharmaceutical compositions for treating lymphoid malignancy” (priority 2011, dated 2024)

Key:
Experiment in all cases: Ambit KinomeScan screening
Type in all cases: binding
Conditions in all cases: CAL-130 10 μM
ABL1(E255K) = molecular target: T1, ABL1(E255K) (Homo sapiens, UniProt P00519, E255K)
T1 construct: unspecified tag ("tagged kinases"); purchased Ambit (KinomeScan screening)
How it was run: (§1)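 Competition binding, 10 μM CAL-130 vs immobilized bait ligand; tagged kinases; readout % of control binding (lower = tighter); >35% = non-hit.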

ABL1(F317L) = molecular target: T2, ABL1(F317L) (Homo sapiens, UniProt P00519, F317L)
T2 construct: unspecified tag ("tagged kinases"); purchased Ambit (KinomeScan screening)
T2 sequence (P00519 whole entry F317L): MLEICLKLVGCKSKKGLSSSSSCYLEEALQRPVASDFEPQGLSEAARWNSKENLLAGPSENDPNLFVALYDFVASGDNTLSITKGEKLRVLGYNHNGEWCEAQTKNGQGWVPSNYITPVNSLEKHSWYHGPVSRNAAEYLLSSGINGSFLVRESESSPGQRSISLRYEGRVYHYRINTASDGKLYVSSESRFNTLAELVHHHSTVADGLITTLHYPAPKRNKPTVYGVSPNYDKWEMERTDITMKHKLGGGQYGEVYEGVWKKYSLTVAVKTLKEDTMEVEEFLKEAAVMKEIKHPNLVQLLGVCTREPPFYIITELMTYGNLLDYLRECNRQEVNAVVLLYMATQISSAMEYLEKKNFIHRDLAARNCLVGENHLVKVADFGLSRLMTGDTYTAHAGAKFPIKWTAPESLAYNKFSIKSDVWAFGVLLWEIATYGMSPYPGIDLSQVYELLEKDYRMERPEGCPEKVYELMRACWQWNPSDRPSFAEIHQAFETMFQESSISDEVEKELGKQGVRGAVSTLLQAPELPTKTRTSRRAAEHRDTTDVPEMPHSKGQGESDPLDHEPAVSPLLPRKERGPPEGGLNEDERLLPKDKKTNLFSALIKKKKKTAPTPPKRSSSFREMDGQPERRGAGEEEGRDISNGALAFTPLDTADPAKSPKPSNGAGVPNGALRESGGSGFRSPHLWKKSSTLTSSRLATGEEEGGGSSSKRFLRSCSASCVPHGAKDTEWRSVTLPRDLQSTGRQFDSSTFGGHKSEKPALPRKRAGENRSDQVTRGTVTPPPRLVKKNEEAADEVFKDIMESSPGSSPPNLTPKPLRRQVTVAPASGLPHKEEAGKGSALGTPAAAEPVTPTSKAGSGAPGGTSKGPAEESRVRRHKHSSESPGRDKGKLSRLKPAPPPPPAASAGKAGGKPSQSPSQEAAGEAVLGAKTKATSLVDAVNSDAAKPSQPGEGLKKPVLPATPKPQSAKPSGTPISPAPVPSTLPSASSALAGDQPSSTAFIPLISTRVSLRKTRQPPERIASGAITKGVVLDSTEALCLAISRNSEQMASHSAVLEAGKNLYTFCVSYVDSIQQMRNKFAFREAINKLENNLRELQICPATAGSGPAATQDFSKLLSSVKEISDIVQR
How it was run: as §1

AKT2 = molecular target: T3, AKT2 (Homo sapiens, UniProt P31751)
T3 construct: purchased Ambit (KinomeScan screening)
How it was run: as §1

AURKC = molecular target: T4, AURKC (Homo sapiens, UniProt Q9UQB9)
T4 construct: purchased Ambit (KinomeScan screening service)
How it was run: as §1

BRSK1 = molecular target: T5, BRSK1 (Homo sapiens, UniProt Q8TDC3)
T5 construct: unspecified tag ("tagged kinases"); purchased Ambit (KinomeScan screening)
How it was run: as §1

CAMK1G = molecular target: T6, CAMK1G (Homo sapiens, UniProt Q96NX5)
T6 construct: unspecified tag ("tagged kinases"); purchased Ambit (KinomeScan screening)
How it was run: as §1

CDK9 = molecular target: T7, CDK9 (Homo sapiens, UniProt P50750)
T7 construct: purchased Ambit (KinomeScan screening service)
How it was run: as §1

DRAK2 = molecular target: T8, DRAK2 (Homo sapiens, UniProt O94768)
T8 construct: unspecified tag ("tagged kinases"); purchased Ambit (KinomeScan screening service)
T8 sequence (O94768 whole entry): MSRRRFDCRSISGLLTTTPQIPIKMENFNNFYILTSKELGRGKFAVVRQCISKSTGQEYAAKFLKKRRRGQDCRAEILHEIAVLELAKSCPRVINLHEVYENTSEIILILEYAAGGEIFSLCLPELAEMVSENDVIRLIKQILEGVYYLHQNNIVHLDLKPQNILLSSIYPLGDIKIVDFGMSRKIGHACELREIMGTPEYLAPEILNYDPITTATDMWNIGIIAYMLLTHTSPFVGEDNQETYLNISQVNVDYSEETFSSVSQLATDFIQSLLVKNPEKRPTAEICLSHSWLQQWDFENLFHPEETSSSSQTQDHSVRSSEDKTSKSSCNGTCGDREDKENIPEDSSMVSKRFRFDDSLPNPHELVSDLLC
How it was run: as §1

EGFR(G719C) = molecular target: T9, EGFR(G719C) (Homo sapiens, UniProt P00533, G719C)
T9 construct: unspecified tag; purchased Ambit (KinomeScan screening service)
How it was run: as §1

EGFR(L747-T751DEL, SINS) = molecular target: T10, EGFR(L747-T751DEL, SINS) (Homo sapiens, UniProt P00533, DEL747-750/T751S)
T10 construct: unspecified tag; purchased Ambit (KinomeScan screening service)
How it was run: as §1

EPHA7 = molecular target: T11, EPHA7 (Homo sapiens, UniProt Q15375)
T11 construct: purchased Ambit (KinomeScan screening service)
How it was run: as §1

EPHB6 = molecular target: T12, EPHB6 (Homo sapiens, UniProt O15197)
T12 construct: purchased Ambit (KinomeScan screening service)
How it was run: as §1

ERK2 = molecular target: T13, ERK2 (Homo sapiens, UniProt P28482)
T13 construct: unspecified tag ("tagged kinases"); purchased Ambit (KinomeScan screening service)
How it was run: as §1

FLT3 = molecular target: T14, FLT3 (Homo sapiens, UniProt P36888)
T14 construct: unspecified tag; purchased Ambit (KinomeScan screening service)
How it was run: as §1

HCK = molecular target: T15, HCK (Homo sapiens, UniProt P08631)
T15 construct: unspecified tag ('tagged kinases'); purchased Ambit (KinomeScan screening service)
How it was run: as §1

HIPK4 = molecular target: T16, HIPK4 (Homo sapiens, UniProt Q8NE63)
T16 construct: Ambit (KinomeScan screening)
How it was run: as §1

IGF1R = molecular target: T17, IGF1R (Homo sapiens, UniProt P08069)
T17 construct: Ambit (KinomeScan screening)
T17 sequence (P08069 31-1367): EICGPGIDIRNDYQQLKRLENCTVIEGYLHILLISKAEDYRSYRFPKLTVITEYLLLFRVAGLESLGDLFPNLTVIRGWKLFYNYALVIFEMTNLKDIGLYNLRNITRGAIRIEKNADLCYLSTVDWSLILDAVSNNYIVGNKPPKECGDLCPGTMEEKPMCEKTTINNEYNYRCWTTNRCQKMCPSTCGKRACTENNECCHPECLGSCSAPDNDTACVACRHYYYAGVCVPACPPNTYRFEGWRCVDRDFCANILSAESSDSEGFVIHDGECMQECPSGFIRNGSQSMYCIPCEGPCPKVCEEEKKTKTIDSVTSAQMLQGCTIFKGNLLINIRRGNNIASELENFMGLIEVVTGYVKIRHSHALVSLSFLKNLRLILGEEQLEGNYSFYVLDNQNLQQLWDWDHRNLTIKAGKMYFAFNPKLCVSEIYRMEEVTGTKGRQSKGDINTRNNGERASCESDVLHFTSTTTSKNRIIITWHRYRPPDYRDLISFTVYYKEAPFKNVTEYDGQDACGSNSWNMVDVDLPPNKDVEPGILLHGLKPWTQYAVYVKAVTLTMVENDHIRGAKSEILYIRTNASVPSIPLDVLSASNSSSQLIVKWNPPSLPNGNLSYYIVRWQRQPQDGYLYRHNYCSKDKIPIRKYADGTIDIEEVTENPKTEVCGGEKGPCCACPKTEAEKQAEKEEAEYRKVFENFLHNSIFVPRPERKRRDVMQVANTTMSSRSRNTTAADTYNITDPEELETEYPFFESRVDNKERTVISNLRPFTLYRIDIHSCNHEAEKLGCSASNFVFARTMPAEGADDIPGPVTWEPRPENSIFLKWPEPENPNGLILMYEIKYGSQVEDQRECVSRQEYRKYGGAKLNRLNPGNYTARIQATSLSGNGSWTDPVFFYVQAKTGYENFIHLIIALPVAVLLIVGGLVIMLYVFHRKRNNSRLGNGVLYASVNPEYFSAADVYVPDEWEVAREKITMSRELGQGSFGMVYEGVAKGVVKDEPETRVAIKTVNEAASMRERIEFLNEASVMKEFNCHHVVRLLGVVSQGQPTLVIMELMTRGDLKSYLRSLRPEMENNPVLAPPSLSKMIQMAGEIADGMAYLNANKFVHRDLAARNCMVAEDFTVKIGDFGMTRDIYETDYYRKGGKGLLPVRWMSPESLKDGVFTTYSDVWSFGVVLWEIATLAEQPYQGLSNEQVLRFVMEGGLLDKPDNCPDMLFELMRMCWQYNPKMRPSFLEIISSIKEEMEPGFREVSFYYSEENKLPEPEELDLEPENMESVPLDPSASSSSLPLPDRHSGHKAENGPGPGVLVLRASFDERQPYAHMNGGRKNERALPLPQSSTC
How it was run: as §1

MAP3K3 = molecular target: T18, MAP3K3 (Homo sapiens, UniProt Q99759)
T18 construct: Ambit (KinomeScan screening)
How it was run: as §1

MARK4 = molecular target: T19, MARK4 (Homo sapiens, UniProt Q96L34)
T19 construct: purchased Ambit (KinomeScan screening)
How it was run: as §1

MAST1 = molecular target: T20, MAST1 (Homo sapiens, UniProt Q9Y2H9)
T20 construct: purchased Ambit (KinomeScan screening)
How it was run: as §1

MLK2 = molecular target: T21, MLK2 (Homo sapiens, UniProt Q02779)
T21 construct: unspecified tag ('tagged kinases'); purchased Ambit (KinomeScan screening)
How it was run: as §1

MRCKA = molecular target: T22, MRCKA (Homo sapiens, UniProt Q5VT25)
T22 construct: unspecified tag ('tagged kinases'); purchased Ambit (KinomeScan screening)
How it was run: as §1

MRCKB = molecular target: T23, MRCKB (Homo sapiens, UniProt Q9Y5S2)
T23 construct: unspecified tag ('tagged kinases'); purchased Ambit (KinomeScan screening)
T23 sequence (Q9Y5S2 whole entry): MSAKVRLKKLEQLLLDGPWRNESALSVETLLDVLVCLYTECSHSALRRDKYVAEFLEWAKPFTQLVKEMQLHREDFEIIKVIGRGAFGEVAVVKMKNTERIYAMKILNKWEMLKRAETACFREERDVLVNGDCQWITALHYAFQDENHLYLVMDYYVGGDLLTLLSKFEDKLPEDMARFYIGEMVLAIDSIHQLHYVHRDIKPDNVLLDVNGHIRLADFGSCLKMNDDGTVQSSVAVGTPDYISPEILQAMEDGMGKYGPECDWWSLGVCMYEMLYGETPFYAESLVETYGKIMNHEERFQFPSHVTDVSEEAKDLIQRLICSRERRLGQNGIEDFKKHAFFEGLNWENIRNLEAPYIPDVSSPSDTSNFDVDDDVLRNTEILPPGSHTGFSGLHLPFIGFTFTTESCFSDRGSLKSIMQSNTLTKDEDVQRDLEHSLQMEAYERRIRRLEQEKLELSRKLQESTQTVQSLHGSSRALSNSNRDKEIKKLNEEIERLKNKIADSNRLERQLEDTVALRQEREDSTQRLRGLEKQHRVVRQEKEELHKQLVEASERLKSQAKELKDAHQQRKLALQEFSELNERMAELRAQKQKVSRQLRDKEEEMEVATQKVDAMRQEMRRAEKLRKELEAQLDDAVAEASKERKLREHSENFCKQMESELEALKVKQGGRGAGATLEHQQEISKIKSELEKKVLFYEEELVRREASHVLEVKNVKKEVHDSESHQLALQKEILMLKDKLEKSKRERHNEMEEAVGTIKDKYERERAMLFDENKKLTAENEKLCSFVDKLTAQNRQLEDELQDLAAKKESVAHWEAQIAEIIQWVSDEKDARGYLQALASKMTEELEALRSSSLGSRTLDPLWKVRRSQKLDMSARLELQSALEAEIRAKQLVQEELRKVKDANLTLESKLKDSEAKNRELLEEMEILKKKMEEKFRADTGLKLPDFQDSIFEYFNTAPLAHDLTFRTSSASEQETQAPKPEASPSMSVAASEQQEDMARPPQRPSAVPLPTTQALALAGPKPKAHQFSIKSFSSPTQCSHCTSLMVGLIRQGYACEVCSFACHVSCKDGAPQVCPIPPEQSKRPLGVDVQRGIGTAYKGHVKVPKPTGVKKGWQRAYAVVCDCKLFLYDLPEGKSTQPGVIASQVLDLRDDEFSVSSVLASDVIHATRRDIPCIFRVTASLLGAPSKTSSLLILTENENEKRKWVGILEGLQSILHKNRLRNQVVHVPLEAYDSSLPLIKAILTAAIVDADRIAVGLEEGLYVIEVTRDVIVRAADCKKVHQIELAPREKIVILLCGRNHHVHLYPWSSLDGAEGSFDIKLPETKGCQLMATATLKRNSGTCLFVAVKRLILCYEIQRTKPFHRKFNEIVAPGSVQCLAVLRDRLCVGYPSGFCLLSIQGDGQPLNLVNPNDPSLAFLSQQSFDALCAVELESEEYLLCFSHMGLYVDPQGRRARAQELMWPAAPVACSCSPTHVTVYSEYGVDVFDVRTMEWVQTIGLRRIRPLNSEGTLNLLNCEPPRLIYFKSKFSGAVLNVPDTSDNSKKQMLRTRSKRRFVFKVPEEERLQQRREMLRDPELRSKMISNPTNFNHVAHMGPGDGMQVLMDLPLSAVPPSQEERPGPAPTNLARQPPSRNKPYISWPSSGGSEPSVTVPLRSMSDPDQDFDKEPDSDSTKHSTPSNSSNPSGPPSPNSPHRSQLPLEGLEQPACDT
How it was run: as §1

MST2 = molecular target: T24, MST2 (Homo sapiens, UniProt Q13188)
T24 construct: unspecified tag ('tagged kinases'); purchased Ambit (KinomeScan screening)
How it was run: as §1

MUSK = molecular target: T25, MUSK (Homo sapiens, UniProt O15146)
T25 construct: unspecified tag; purchased Ambit (KinomeScan screening panel)
How it was run: as §1

NDR2 = molecular target: T26, NDR2 (Homo sapiens, UniProt Q9Y2H1)
T26 construct: unspecified tag; purchased Ambit (KinomeScan screening panel)
How it was run: as §1

PDPK1 = molecular target: T27, PDPK1 (Homo sapiens, UniProt O15530)
T27 construct: unspecified tag ('tagged kinases'); purchased Ambit (KinomeScan screening)
How it was run: as §1

PIM3 = molecular target: T28, PIM3 (Homo sapiens, UniProt Q86V86)
T28 construct: unspecified tag; purchased Ambit (KinomeScan screening panel)
How it was run: as §1

PIP5K1A = molecular target: T29, PIP5K1A (Homo sapiens, UniProt Q99755)
T29 construct: unspecified tag; purchased Ambit (KinomeScan screening panel)
How it was run: as §1

PKN1 = molecular target: T30, PKN1 (Homo sapiens, UniProt Q16512)
T30 construct: purchased Ambit (KinomeScan screening service)
How it was run: as §1

QSK = molecular target: T31, QSK (Homo sapiens, UniProt Q9Y2K2)
T31 construct: tag (kind not specified); purchased Ambit (KinomeScan screening service)
How it was run: as §1

SLK = molecular target: T32, SLK (Homo sapiens, UniProt Q9H2G2)
T32 construct: tag, kind not specified; purchased Ambit (KinomeScan screening service)
How it was run: as §1

SRMS = molecular target: T33, SRMS (Homo sapiens, UniProt Q9H3Y6)
T33 construct: tag, kind not specified; purchased Ambit (KinomeScan screening service)
T33 sequence (Q9H3Y6 whole entry): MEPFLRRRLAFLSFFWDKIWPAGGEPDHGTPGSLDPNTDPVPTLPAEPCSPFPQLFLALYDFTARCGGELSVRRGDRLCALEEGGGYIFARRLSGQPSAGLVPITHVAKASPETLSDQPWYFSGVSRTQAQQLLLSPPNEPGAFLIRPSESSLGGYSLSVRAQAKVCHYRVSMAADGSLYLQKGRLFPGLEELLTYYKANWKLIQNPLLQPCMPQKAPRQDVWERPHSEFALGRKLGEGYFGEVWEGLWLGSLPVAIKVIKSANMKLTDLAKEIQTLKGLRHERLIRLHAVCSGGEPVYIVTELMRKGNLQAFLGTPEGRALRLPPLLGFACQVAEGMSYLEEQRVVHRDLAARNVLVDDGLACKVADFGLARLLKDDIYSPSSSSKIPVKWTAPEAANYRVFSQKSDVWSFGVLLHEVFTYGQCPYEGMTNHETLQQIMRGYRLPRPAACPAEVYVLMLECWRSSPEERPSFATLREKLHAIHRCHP
How it was run: as §1

STK33 = molecular target: T34, STK33 (Homo sapiens, UniProt Q9BYT3)
T34 construct: purchased Ambit (KinomeScan screening service)
How it was run: as §1

TAOK1 = molecular target: T35, TAOK1 (Homo sapiens, UniProt Q7L7X3)
T35 construct: tag (kind not specified); purchased Ambit (KinomeScan screening service)
How it was run: as §1

TIE1 = molecular target: T36, TIE1 (Homo sapiens, UniProt P35590)
T36 construct: unspecified tag (tagged kinase); purchased Ambit (KinomeScan screening)
How it was run: as §1

Measured: Percent of Control Binding

T1 sequence (P00519 whole entry E255K): as the sequence (P00519 whole entry F317L) above, with E255K, L317F counted along it

Cc1ccccc1-n1c(C(C)Nc2nc(N)nc3nc[nH]c23)nc2cccc(C)c2c1=O (stereo not drawn) [CAL-130]
100%: ABL1(E255K) | ABL1(F317L) | AKT2 | AURKC | BRSK1 | CAMK1G | CDK9 | DRAK2 | EGFR(G719C) | EGFR(L747-T751DEL, SINS) | EPHA7 | EPHB6 | ERK2 | FLT3 | HCK | HIPK4 | IGF1R | MAP3K3 | MARK4 | MAST1 | MLK2 | MRCKA | MRCKB | MST2 | MUSK | NDR2 | PDPK1 | PIM3 | PIP5K1A | PKN1 | QSK | SLK | SRMS | STK33 | TAOK1 | TIE1
